Measured values: ChEMBL document CHEMBL1201862, “PubChem BioAssay data set” (2004)
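All cell lines were grown in 96-well plates and treated with compound for 48 hours. At the GI50, growth is halved.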 Activity calls are given as the source filed them. No stated cut-off is given here; in the data, active = GI50 up to about 1.1 µM and inactive = higher.

How the values were obtained:
Assay in all cases: inhibition of tumour cell growth, NCI panel, 48 h
OVCAR-3 = system: OVCAR-3
MDA-MB-435 = system: MDA-MB-435
SR = system: SR
M14 = system: M14
RPMI-8226 = system: RPMI-8226
SF-295 = system: SF-295
SF-268 = system: SF-268
SK-MEL-2 = system: SK-MEL-2
EKVX = system: EKVX
NCI-H226 = system: NCI-H226
MDA-MB-231 = system: MDA-MB-231
SNB-19 = system: SNB-19
SK-MEL-28 = system: SK-MEL-28
SK-MEL-5 = system: SK-MEL-5
TK-10 = system: TK-10
KM12 = system: KM12
COLO 205 = system: COLO 205
HL-60 = system: HL-60
OVCAR-8 = system: OVCAR-8
MOLT-4 = system: MOLT-4

Measured: GI50

Cn1c(=O)c2nc(CCS)[nH]c2n(C)c1=O
inactive: OVCAR-3 > 100 µM | MDA-MB-435 > 100 µM | SR > 100 µM | M14 > 100 µM | RPMI-8226 > 100 µM | SF-295 > 100 µM | SF-268 35.6 µM | SK-MEL-2 > 100 µM | EKVX > 100 µM | NCI-H226 > 100 µM | MDA-MB-231 > 100 µM | SNB-19 > 100 µM | SK-MEL-28 > 100 µM | SK-MEL-5 > 100 µM | TK-10 50.2 µM | KM12 > 100 µM | COLO 205 > 100 µM | HL-60 > 100 µM | OVCAR-8 > 100 µM | MOLT-4 > 100 µM

Nc1cc(C(=O)O)nc(O)n1
inactive: OVCAR-3 > 100 µM | MDA-MB-435 > 100 µM | SR > 100 µM | M14 > 100 µM | RPMI-8226 > 100 µM | SF-295 > 100 µM | SF-268 > 100 µM | SK-MEL-2 > 100 µM | EKVX > 100 µM | NCI-H226 > 100 µM | MDA-MB-231 > 100 µM | SNB-19 > 100 µM | SK-MEL-28 > 100 µM | SK-MEL-5 > 100 µM | TK-10 > 100 µM | KM12 > 100 µM | COLO 205 > 100 µM | HL-60 > 100 µM | OVCAR-8 > 100 µM | MOLT-4 > 100 µM

C=CCN1C(=O)/C(=C/c2ccc(Cl)cc2)N=C1SC/C=C/C
inactive: OVCAR-3 44.6 µM | MDA-MB-435 33.6 µM | SR 17.5 µM | M14 31 µM | RPMI-8226 17.3 µM | SF-295 46.9 µM | SF-268 48.3 µM | SK-MEL-2 24.2 µM | EKVX 26.4 µM | NCI-H226 > 100 µM | MDA-MB-231 42.4 µM | SNB-19 22.9 µM | SK-MEL-28 53.2 µM | SK-MEL-5 24.4 µM | TK-10 > 100 µM | KM12 32.3 µM | COLO 205 32.1 µM | HL-60 21.7 µM | OVCAR-8 29.5 µM | MOLT-4 17.5 µM

COc1ccc(C(=O)N2CCN(c3ccc4c(c3)OCC(=O)N4)CC2)cc1
inactive: OVCAR-3 > 100 µM | MDA-MB-435 > 100 µM | SR 67.3 µM | M14 > 100 µM | RPMI-8226 > 100 µM | SF-295 > 100 µM | SF-268 > 100 µM | SK-MEL-2 > 100 µM | EKVX 94 µM | NCI-H226 > 100 µM | MDA-MB-231 > 100 µM | SNB-19 > 100 µM | SK-MEL-28 > 100 µM | SK-MEL-5 > 100 µM | TK-10 > 100 µM | KM12 > 100 µM | COLO 205 > 100 µM | HL-60 64.6 µM | OVCAR-8 > 100 µM | MOLT-4 > 100 µM

C/C(=C1/N=C(c2ccccc2)OC1=O)c1ccc(C)cc1
inactive: OVCAR-3 > 100 µM | MDA-MB-435 > 100 µM | SR > 100 µM | M14 > 100 µM | RPMI-8226 74.1 µM | SF-295 > 100 µM | SF-268 > 100 µM | SK-MEL-2 > 100 µM | EKVX > 100 µM | NCI-H226 > 100 µM | MDA-MB-231 > 100 µM | SNB-19 > 100 µM | SK-MEL-28 > 100 µM | SK-MEL-5 > 100 µM | TK-10 > 100 µM | KM12 > 100 µM | COLO 205 > 100 µM | HL-60 45.3 µM | OVCAR-8 > 100 µM | MOLT-4 > 100 µM

NC1=Nc2ccccc2Sc2nccn21
inactive: OVCAR-3 18.6 µM | MDA-MB-435 23.7 µM | SR 26.4 µM | M14 17 µM | RPMI-8226 18.2 µM | SF-295 22.3 µM | SF-268 30.2 µM | SK-MEL-2 32.7 µM | EKVX 27.7 µM | NCI-H226 20.9 µM | MDA-MB-231 16.1 µM | SNB-19 40.3 µM | SK-MEL-28 35.8 µM | SK-MEL-5 16.5 µM | TK-10 30.6 µM | KM12 24.2 µM | COLO 205 15.4 µM | HL-60 18.7 µM | OVCAR-8 31.1 µM | MOLT-4 20.2 µM

CC(=O)Nc1sccc1S(=O)(=O)c1ccc(Cl)cc1
inactive: OVCAR-3 > 100 µM | MDA-MB-435 > 100 µM | SR > 100 µM | M14 > 100 µM | RPMI-8226 > 100 µM | SF-295 > 100 µM | SF-268 > 100 µM | SK-MEL-2 > 100 µM | EKVX > 100 µM | NCI-H226 > 100 µM | MDA-MB-231 > 100 µM | SNB-19 > 100 µM | SK-MEL-28 > 100 µM | SK-MEL-5 > 100 µM | TK-10 > 100 µM | KM12 > 100 µM | COLO 205 > 100 µM | HL-60 > 100 µM | OVCAR-8 > 100 µM | MOLT-4 > 100 µM

NS(=O)(=O)c1ccc(NCc2cccc3c(=O)c4ccc(Cl)cc4oc23)cc1
inactive: OVCAR-3 54.8 µM | MDA-MB-435 19.7 µM | SR 4.68 µM | M14 27.8 µM | RPMI-8226 24 µM | SF-295 59.4 µM | SF-268 19.5 µM | SK-MEL-2 68.7 µM | EKVX > 33.8 µM | NCI-H226 > 76.7 µM | MDA-MB-231 52 µM | SNB-19 8.07 µM | SK-MEL-28 > 79.8 µM | SK-MEL-5 59.4 µM | TK-10 > 72.9 µM | KM12 21.4 µM | COLO 205 55.1 µM | HL-60 3.68 µM | OVCAR-8 24.2 µM | MOLT-4 19.7 µM

COc1cc(Br)cc2nc(-c3cccs3)oc12
inactive: OVCAR-3 > 100 µM | MDA-MB-435 > 100 µM | SR > 100 µM | M14 > 100 µM | RPMI-8226 > 100 µM | SF-295 55.7 µM | SF-268 > 62.4 µM | SK-MEL-2 > 100 µM | EKVX > 61.9 µM | NCI-H226 > 100 µM | MDA-MB-231 > 42.2 µM | SNB-19 > 83 µM | SK-MEL-28 > 100 µM | SK-MEL-5 74.1 µM | TK-10 31.8 µM | KM12 > 100 µM | COLO 205 > 100 µM | HL-60 > 100 µM | OVCAR-8 > 100 µM | MOLT-4 > 100 µM

CCOC(=O)C(NNS(=O)(=O)c1ccc(C)cc1)S(=O)(=O)C(F)(F)C(F)(F)C(F)(F)C(F)(F)F (stereo not given)
inactive: OVCAR-3 > 100 µM | MDA-MB-435 > 100 µM | SR > 100 µM | M14 > 100 µM | RPMI-8226 > 100 µM | SF-295 78.3 µM | SF-268 > 100 µM | SK-MEL-2 > 100 µM | EKVX > 100 µM | NCI-H226 > 100 µM | MDA-MB-231 > 100 µM | SNB-19 > 100 µM | SK-MEL-28 > 100 µM | SK-MEL-5 > 100 µM | TK-10 > 100 µM | KM12 > 100 µM | COLO 205 > 100 µM | HL-60 > 100 µM | OVCAR-8 > 100 µM | MOLT-4 81.8 µM
